Molecular target: T1, Human full-length diacylglycerol:acylCoA acyltransferase 1 (DGAT-1) (Homo sapiens, UniProt O75907)
T1 sequence (O75907 1-488): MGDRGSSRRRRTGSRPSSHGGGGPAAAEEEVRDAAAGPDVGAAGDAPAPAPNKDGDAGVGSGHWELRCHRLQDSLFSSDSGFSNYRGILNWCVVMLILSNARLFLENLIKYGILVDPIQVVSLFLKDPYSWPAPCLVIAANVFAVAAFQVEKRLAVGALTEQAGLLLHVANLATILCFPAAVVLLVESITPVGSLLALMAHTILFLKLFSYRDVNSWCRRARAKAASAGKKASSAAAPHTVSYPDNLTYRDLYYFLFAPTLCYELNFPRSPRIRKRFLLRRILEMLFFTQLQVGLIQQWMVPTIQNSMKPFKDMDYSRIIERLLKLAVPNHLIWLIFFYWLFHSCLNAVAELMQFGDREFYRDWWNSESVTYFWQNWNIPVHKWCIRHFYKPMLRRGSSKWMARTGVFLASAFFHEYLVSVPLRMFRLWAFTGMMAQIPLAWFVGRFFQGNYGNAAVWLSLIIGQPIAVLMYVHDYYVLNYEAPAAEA
Assay: In vitro assay for inhibition of DGAT-1 activity (DGAT 1 Reduced Microsome Multidose Assay)
Details: average where n > 1

[1] = Trial 1 Human IC50, Trial 1: as Trial 4 except microsomes at 25 μg/mL instead of 5 μg/mL
[2] = Trial 2 Human IC50, Trial 2: as Trial 4 except eleven concentrations of inhibitor instead of eight
[3] = Trial 3 Human IC50, Trial 3: as Trial 2 except compounds serially diluted in a different laboratory
[4] = Trial 4 Human IC50, Trial 4: eight concentrations of inhibitor, microsomes 5 μg/mL

Protocol: Human full-length diacylglycerol:acylCoA acyltransferase 1 (DGAT-1) was expressed in Sf9 insect cells which are then lysed and a crude membrane fraction (105,000×g pellet) was prepared.
Inhibitors in DMSO were pre-incubated with membranes before initiating the DGAT-1 reaction by the addition of decanoylCoA. […] The inhibitors were present at a range of eight concentrations to generate an apparent IC50 for each compound. […] Specifically, the eight concentrations used were 3 μM, 1 μM, 300 nM, 100 nM, 30 nM, 10 nM, 3 nM and 1 nM.
The reactions were allowed to proceed for 1.5 hours at room temperature and then terminated by the addition of 20 μl of EDTA (40 mM). Reaction mixture is then mixed by trituration with 30 μl of Microscint™-E (Perkin Elmer). […] Four separate trials were conducted. The method of analysis of Trial 1 was the same as Trial 4 (described above) except microsomes were utilized at 25 μg/mL instead of 5 μg/mL. The method of analysis of Trial 2 was the same as Trial 4 (described above) except eleven (11) concentrations of inhibitor were employed instead of eight (8). The method of analysis of Trial 3 was the same as Trial 2 except the compounds were serially diluted in a different laboratory.
Where this DGAT-1 inhibition assay was performed on a compound more than once, an average is provided for that compound.

IC50 [1] [nM]	IC50 [4] [nM]	SMILES	other results
84.9		COC[C@H]1CCN(C(=O)C[C@H]2CC[C@H](c3ccc(N4CCOc5ncnc(N)c5C4=O)cc3)CC2)C1 [Example 6F]	
53.5		CN(C(=O)C[C@H]1CC[C@H](c2ccc(N3CCOc4ncnc(N)c4C3=O)cc2)CC1)C1CCOCC1 [Example 6H]	
		Nc1ncnc2c1C(=O)N(c1ccc(C3CCN(C(=O)CC4CCOC4)CC3)cc1)CCO2 (centres unmarked) [Example 7M]	IC50 [2]: 114 nM; IC50 [3]: 180 nM
		Nc1ncnc2c1C(=O)N(c1ccc(C3CCN(C(=O)Cc4ncccn4)CC3)cc1)CCO2 [Example 7N]	IC50 [2]: 119 nM; IC50 [3]: 234 nM
80.4		CC1CCCN1C(=O)C[C@H]1CC[C@H](c2ccc(N3CCOc4ncnc(N)c4C3=O)cc2)CC1 (some centres unmarked) [Example 6AI]	
		Nc1ncnc2c1C(=O)N(c1ccc([C@H]3CC[C@H](CCO)CC3)cc1)CCO2 [Example 1E, 4-amino-6-{4-[trans-4-(2-hydroxyethyl)cyclohexyl]phenyl}-7,8-dihydropyrimido[5,4-f][1,4]oxazepin-5(6H)-one]	IC50 [2]: 14.1 nM; IC50 [3]: 9.75 nM
	161	COC(=O)c1ccc(N2C[C@@H](C)Oc3ncnc(N)c3C2=O)cc1 [Example 1J, Methyl 4-[(8R)-4-amino-8-methyl-5-oxo-7,8-dihydropyrimido[5,4-f][1,4]oxazepin-6(5H)-yl]benzoate]	
30.7		CCCCCN(CCO)C(=O)C[C@H]1CC[C@H](c2ccc(N3CCOc4ncnc(N)c4C3=O)cc2)CC1 [Example 6V]	
51		COCCN(C)C(=O)C[C@H]1CC[C@H](c2ccc(N3CCOc4ncnc(N)c4C3=O)cc2)CC1 [Example 6J]	
123		Nc1ncnc2c1C(=O)N(c1ccc([C@H]3CC[C@H](CC(=O)N4CCNC(=O)C4)CC3)cc1)CCO2 [Example 6AX]	
2120		CC(C)(C#N)c1ccc(N2CCOc3ncnc(N)c3C2=O)cc1 [Example 1F, 2-[4-(4-amino-5-oxo-7,8-dihydropyrimido[5,4-f][1,4]oxazepin-6(5H)-yl)phenyl]-2-methylpropanenitrile]	IC50 [2]: 1290 nM; IC50 [3]: 2660 nM
	14.3	C[C@@H]1CN(c2ccc(C(C)(C)C(F)(F)F)cc2)C(=O)c2c(N)ncnc2O1 [Example 1Z, (8R)-4-amino-8-methyl-6-[4-(2,2,2-trifluoro-1,1-dimethylethyl)phenyl]-7,8-dihydropyrimido[5,4-f][1,4]oxazepin-5(6H)-one]	
75.5		CC1(C)C(=O)NCCN1C(=O)C[C@H]1CC[C@H](c2ccc(N3CCOc4ncnc(N)c4C3=O)cc2)CC1 [Example 6AE]	
85.3		CC1(O)CCN(C(=O)C[C@H]2CC[C@H](c3ccc(N4CCOc5ncnc(N)c5C4=O)cc3)CC2)C1 (some centres unmarked) [Example 6AR]	
	34.6	COC(C)(C)c1ccc(N2C[C@@H](C)Oc3ncnc(N)c3C2=O)cc1 [Example 1AL, (8R)-4-amino-6-[4-(1-methoxy-1-methylethyl)phenyl]-8-methyl-7,8-dihydropyrimido[5,4-f][1,4]oxazepin-5(6H)-one]	
		C[C@H](O)CC(=O)N1CCC(c2ccc(N3CCOc4ncnc(N)c4C3=O)cc2)CC1 [Example 7D]	IC50 [2]: 98.2 nM; IC50 [3]: 267 nM
161		CN(C)C(=O)CN(C)C(=O)C[C@H]1CC[C@H](c2ccc(N3CCOc4ncnc(N)c4C3=O)cc2)CC1 [Example 6AT]	
178		CN(C)C(=O)CCN(C)C(=O)C[C@H]1CC[C@H](c2ccc(N3CCOc4ncnc(N)c4C3=O)cc2)CC1 [Example 6AC]	
	13.7	CCc1ccc(N2C[C@@H](C)Oc3ncnc(N)c3C2=O)cc1 [Example 1M, (8R)-4-amino-6-(4-ethylphenyl)-8-methyl-7,8-dihydropyrimido[5,4-f]-[1,4]oxazepin-5(6H)-one]	
	15.5	CCC(CC)(OC)c1ccc(N2C[C@@H](C)Oc3ncnc(N)c3C2=O)cc1 [Example 1AI, (8R)-4-amino-6-[4-(1-ethyl-1-methoxypropyl)phenyl]-8-methyl-7,8-dihydropyrimido[5,4-f][1,4]oxazepin-5(6H)-one]	
89.6		CCN(C(=O)C[C@H]1CC[C@H](c2ccc(N3CCOc4ncnc(N)c4C3=O)cc2)CC1)[C@H](C)CO [Example 6Z]	

IC50 [1] [nM]	IC50 [4] [nM]	SMILES	other results
47.2		C[C@@H]1COCCN1C(=O)C[C@H]1CC[C@H](c2ccc(N3CCOc4ncnc(N)c4C3=O)cc2)CC1 [Example 6BD]	
85.3		Nc1ncnc2c1C(=O)N(c1ccc([C@H]3CC[C@H](CC(=O)N4CCCCC4CCO)CC3)cc1)CCO2 (some centres unmarked) [Example 6AY]	
50.1		N#CC1CCN(C(=O)C[C@H]2CC[C@H](c3ccc(N4CCOc5ncnc(N)c5C4=O)cc3)CC2)CC1 [Example 6G]	
52.8		CN(C(=O)C[C@H]1CC[C@H](c2ccc(N3CCOc4ncnc(N)c4C3=O)cc2)CC1)[C@H]1CCCC[C@@H]1O [Example 6AG]	
	146	CC(O)c1ccc(N2C[C@@H](C)Oc3ncnc(N)c3C2=O)cc1 (some centres unmarked) [Example 1W]	
		Nc1ncnc2c1C(=O)N(c1ccc(C3CCN(C(=O)Cn4cccn4)CC3)cc1)CCO2 [Example 7AC]	IC50 [2]: 73.1 nM; IC50 [3]: 113 nM
192		CC(=O)N[C@@H]1CCN(C(=O)C[C@H]2CC[C@H](c3ccc(N4CCOc5ncnc(N)c5C4=O)cc3)CC2)C1 [Example 6S]	
	19.9	C[C@@H]1CN(c2ccc(C3CC3)cc2)C(=O)c2c(N)ncnc2O1 [Example 1U]	
		Nc1ncnc2c1C(=O)N(c1ccc(C3CCN(C(=O)CC4CCCOC4)CC3)cc1)CCO2 (centres unmarked) [Example 7E]	IC50 [2]: 196 nM; IC50 [3]: 300 nM
18.1		CN(Cc1ccc(F)cc1)C(=O)C[C@H]1CC[C@H](c2ccc(N3CCOc4ncnc(N)c4C3=O)cc2)CC1 [Example 6AK]	
	76.5	C[C@@H]1CN(c2ccc([C@H]3C[C@@H](O)C3)cc2)C(=O)c2c(N)ncnc2O1 [Example 1Q]	
75.5		CC(c1ccncc1)N(C)C(=O)C[C@H]1CC[C@H](c2ccc(N3CCOc4ncnc(N)c4C3=O)cc2)CC1 (some centres unmarked) [Example 6AU]	
87.5		CC(c1cccnc1)N(C)C(=O)C[C@H]1CC[C@H](c2ccc(N3CCOc4ncnc(N)c4C3=O)cc2)CC1 (some centres unmarked) [Example 6AQ]	
	61.4	C[C@@H]1CN(c2ccc(C(C)(C)O)cc2)C(=O)c2c(N)ncnc2O1 [Example 1A-2, (8R)-4-amino-6-(4-(2-hydroxypropan-2-yl)phenyl)-8-methyl-7,8-dihydropyrimido[5,4-f][1,4]oxazepin-5(6H)-one]	
	42.3	CCOC(C)(C)c1ccc(N2C[C@@H](C)Oc3ncnc(N)c3C2=O)cc1 [Example 1AK, (8R)-4-amino-6-[4-(1-ethoxy-1-methylethyl)phenyl]-8-methyl-7,8-dihydropyrimido[5,4-f][1,4]oxazepin-5(6H)-one]	
	24	C[C@@H]1CN(c2ccc(C(C)(C)C(N)=O)cc2)C(=O)c2c(N)ncnc2O1 [Example 1AR]	
	32.5	COC(=O)C(C)(C)c1ccc(N2C[C@@H](C)Oc3ncnc(N)c3C2=O)cc1 [Example 1X]	
60.1		Nc1ncnc2c1C(=O)N(c1ccc([C@H]3CC[C@H](CCC(=O)N4CCOCC4)CC3)cc1)CCO2 [Example 6BF]	
		Nc1ncnc2c1C(=O)N(c1ccc(C3CCN(C(=O)C4CCCOC4)CC3)cc1)CCO2 (centres unmarked) [Example 7Z]	IC50 [2]: 105 nM; IC50 [3]: 134 nM
	6.78	CC(C)Cc1ccc(N2C[C@@H](C)Oc3ncnc(N)c3C2=O)cc1 [Example 1Y, (8R)-4-amino-6-(4-isobutylphenyl)-8-methyl-7,8-dihydropyrimido[5,4-f]-[1,4]oxazepin-5(6H)-one]	
